These results are taken from patent publication US8163756B2 (priority 2004, dated 2012).

Type in all cases: biochemical
In assay [1] the target is phosphorylated p-38-alpha kinase (Homo sapiens, UniProt Q16539). Kind of assay: P-38 alpha kinase assay P1 (coupled spectrophotometric, 2 h pre-incubation). The settings on record: method P1 (2 h pre-incubation); read-out: P-38 Data.
A further assay deals with KDR kinase (Homo sapiens, UniProt P35968, DEL940-989/E990V). Kind of assay: KDR kinase assay K1 (pyruvate kinase/lactate dehydrogenase coupled, spectrophotometric). The settings on record: Method K1; read-out: KDR Data (IC50). As for the experimental part:
(§1) IC50 values were calculated from a series of percent inhibition values determined at a range of inhibitor concentrations using software routines as implemented in the GraphPad Prism software package.

A further assay deals with B-Raf(V599E) kinase (Homo sapiens, UniProt P15056, V600E). As to the kind of experiment: B-Raf(V599E) kinase assay B1 (construct 1, MEK1 substrate, coupled spectrophotometric). As for the experimental part: The test compounds were incubated with the reaction mixtureat 30° C. for 2 h. […] The reaction rate was calculated using the […] time frame. […] IC50 values were calculated from a series of percent inhibition values determined at a range of inhibitor concentrations using software routines as implemented in the GraphPad Prism software package.

The target in another assay is T1, Abl kinase (Homo sapiens, UniProt P00519).
T1 sequence (P00519 229-512): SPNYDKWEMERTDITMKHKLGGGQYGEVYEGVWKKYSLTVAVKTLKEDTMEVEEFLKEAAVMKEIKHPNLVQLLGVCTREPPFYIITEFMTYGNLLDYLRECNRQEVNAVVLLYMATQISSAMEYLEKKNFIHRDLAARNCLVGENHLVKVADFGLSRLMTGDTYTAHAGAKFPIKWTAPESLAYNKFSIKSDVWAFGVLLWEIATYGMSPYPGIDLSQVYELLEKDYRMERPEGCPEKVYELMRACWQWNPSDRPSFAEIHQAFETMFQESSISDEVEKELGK
As to the kind of experiment: Abl kinase assay A1 (pyruvate kinase/lactate dehydrogenase coupled, spectrophotometric). The settings on record: Method A1; read-out: Abl Data (IC50). The procedure: as §1

B-Raf(V599E) kinase, sequence (P15056 with tags, fused parts or gaps V600E): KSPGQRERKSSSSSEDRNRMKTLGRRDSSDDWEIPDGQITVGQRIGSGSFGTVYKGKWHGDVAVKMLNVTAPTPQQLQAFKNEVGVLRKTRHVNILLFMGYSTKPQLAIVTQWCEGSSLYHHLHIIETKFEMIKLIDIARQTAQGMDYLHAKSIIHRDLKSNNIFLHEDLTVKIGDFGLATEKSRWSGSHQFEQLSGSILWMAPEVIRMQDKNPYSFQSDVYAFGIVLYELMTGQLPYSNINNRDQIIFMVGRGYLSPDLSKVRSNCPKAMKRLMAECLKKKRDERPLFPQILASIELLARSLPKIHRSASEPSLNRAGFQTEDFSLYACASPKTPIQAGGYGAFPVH
phosphorylated p-38-alpha kinase, sequence (Q16539 1-360 isoform Q16539-2): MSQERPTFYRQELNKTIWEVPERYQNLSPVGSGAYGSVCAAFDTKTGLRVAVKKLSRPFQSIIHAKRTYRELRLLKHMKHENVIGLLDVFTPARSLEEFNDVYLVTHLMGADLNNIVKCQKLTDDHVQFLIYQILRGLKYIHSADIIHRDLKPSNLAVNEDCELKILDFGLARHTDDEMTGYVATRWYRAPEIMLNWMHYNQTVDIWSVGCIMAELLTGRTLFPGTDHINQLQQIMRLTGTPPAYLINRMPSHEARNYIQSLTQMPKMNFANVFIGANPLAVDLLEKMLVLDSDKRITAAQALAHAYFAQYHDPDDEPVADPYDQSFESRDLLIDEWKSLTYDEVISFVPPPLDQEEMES
KDR kinase, sequence (P35968 with tags, fused parts or gaps DEL940-989/E990V): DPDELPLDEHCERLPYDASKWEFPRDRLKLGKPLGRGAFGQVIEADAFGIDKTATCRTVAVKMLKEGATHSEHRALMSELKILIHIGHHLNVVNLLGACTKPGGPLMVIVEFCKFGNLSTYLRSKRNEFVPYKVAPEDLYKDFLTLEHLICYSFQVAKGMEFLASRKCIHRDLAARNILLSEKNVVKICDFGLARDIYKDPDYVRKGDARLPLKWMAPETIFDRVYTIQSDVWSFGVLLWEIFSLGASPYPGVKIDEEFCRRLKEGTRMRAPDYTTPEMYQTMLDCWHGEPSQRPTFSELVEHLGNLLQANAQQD

Regarding `CNC(=O)C1NCCc2cc(-n3nc(C(C)(C)C)cc3NC(=O)Nc3cccc(Cl)c3Cl)ccc21` (centres unmarked) [Example 204, 1-(3-t-butyl-1-(1-(methylcarbamoyl)-1,2,3,4-tetrahydroisoquinolin-6-yl)-1H-pyrazol-5-yl)-3-(2,3-dichlorophenyl)urea], the IC50 in assay [1] was found to be 9 nM; at KDR kinase, 99 nM.

For the compound `CC1(O)CCN(C(=O)Cc2ccc(-n3nc(C(C)(C)C)cc3NC(=O)Nc3cccc(Cl)c3Cl)cc2)CC1` [Example 496, 1-(3-t-butyl-1-{4-[2-(4-hydroxy-4-methylpiperidin-1-yl)-2-oxoethyl]phenyl}-1H-pyrazol-5-yl)-3-(2,3-dichlorophenyl)urea], the IC50 is 5 nM in assay [1], 470 nM on KDR kinase and 26 nM against B-Raf(V599E) kinase.

On to `CC(C)(C)c1cc(NC(=O)Nc2cc(F)c(F)cc2F)n(-c2cc(CNC(N)=O)c3ccccc3c2)n1` [Example 297], for which the IC50 at KDR kinase was 270 nM; against B-Raf(V599E) kinase, 3.2 nM.

As for `CC(C)(C)c1cc(NC(=O)Nc2cccc(Cl)c2Cl)n(-c2ccc(CC(=O)O)cc2)n1` [Example 383], the figures for the IC50 (in assay [1]; on KDR kinase; against B-Raf(V599E) kinase) were 7 nM, 280 nM and 8.1 nM, respectively.

Consider `COc1ccc(-n2nc(C(C)(C)C)cc2NC(=O)Nc2cccc(F)c2F)cc1` [Example 241, 1-[3-t-butyl-1-(4-methoxyphenyl)-1H-pyrazol-5-yl]-3-(2,3-difluorophenyl)urea], for which the IC50 was determined as 220 nM in assay [1], 570 nM on KDR kinase and 24 nM against B-Raf(V599E) kinase.

Regarding `CC(C(=O)O)c1ccc(-n2nc(C(C)(C)C)cc2NC(=O)Nc2cccc(Cl)c2Cl)cc1` (centres unmarked) [Example 202, 2-(4-(3-t-butyl-5-(3-(2,3-dichlorophenyl)ureido)-1H-pyrazol-1-yl)phenyl)propanoic acid], the IC50 came out at 12 nM in assay [1] and 230 nM on KDR kinase.

As for `CC(C)(C)c1cc(NC(=O)Nc2cccc(Cl)c2)n(-c2cccc(CN)c2)n1` [Example 227, 1-{1-[3-(aminomethyl)phenyl]-3-t-butyl-1H-pyrazol-5-yl}-3-(3-chloro-phenyl)urea], the IC50 came out at 9300 nM on KDR kinase and 61 nM at B-Raf(V599E) kinase.

`CC(C)(C)c1cc(NC(=O)NC2CCCCC2)n(-c2ccc3c(c2)CCC(=O)N3)n1` [Example 318, 1-(3-t-butyl-1-(2-oxo-1,2,3,4-tetrahydroquinolin-6-yl)-1H-pyrazol-5-yl)-3-cyclohexylurea]: the results for the IC50 at KDR kinase and on B-Raf(V599E) kinase were 10100 nM and 29 nM, respectively.

Turning to `CC(C)(C)c1cc(NC(=O)Nc2cccc(F)c2F)n(-c2cccc(CO)c2)n1` [Example 220, 1-{3-t-butyl-1-[3-(hydroxymethyl)phenyl]-1H-pyrazol-5-yl}-3-(2,3-difluorophenyl)urea], the values for the IC50 at KDR kinase and at B-Raf(V599E) kinase were 950 nM and 33 nM, respectively.

As to `CC(C)(C)c1cc(NC(=O)Nc2cc(F)cc(F)c2F)n(-c2cc(CNC(N)=O)c3ccccc3c2)n1` [Example 296], the IC50 at KDR kinase came to 200 nM; against B-Raf(V599E) kinase, 3 nM.

Turning to `CC(C)(C)c1cc(NC(=O)Nc2cc(F)c(F)cc2F)n(-c2cccc(C#N)c2)n1` [Example 207, 1-(3-t-butyl-1-(3-cyanophenyl)-1H-pyrazol-5-yl)-3-(2,4,5-trifluorophenyl)urea], at KDR kinase, the IC50 worked out at 340 nM.

`CC(C)(C)c1cc(NC(=O)Nc2cccc(F)c2F)n(-c2ccc3c(c2)CCN3)n1` [Example 307, 1-(3-t-butyl-1-(indolin-5-yl)-1H-pyrazol-5-yl)-3-(2,3-difluorophenyl)urea]: the IC50 on KDR kinase is 720 nM; against B-Raf(V599E) kinase it was 10 nM.

As for `CC(C)(C)c1cc(NC(=O)Nc2ccsc2)n(-c2ccc3c(c2)CCC(=O)N3)n1` [Example 316, 1-(3-t-butyl-1-(2-oxo-1,2,3,4-tetrahydro-quinolin-6-yl)-1H-pyrazol-5-yl)-3-(thiophen-3-yl)urea], the IC50 on KDR kinase was 12900 nM; on B-Raf(V599E) kinase, 66 nM.

For `CC(C)(C)c1cc(NC(=O)Nc2cccc(Cl)c2)n(-c2cccc(CCN)c2)n1` [Example 257, 1-{1-[3-(2-aminoethyl)phenyl]-3-t-butyl-1H-pyrazol-5-yl}-3-(3-chlorophenyl)urea], the IC50 at KDR kinase was 6600 nM; against B-Raf(V599E) kinase, 62 nM.

Consider `CC(C)(C)c1cc(NC(=O)Nc2ccc(Cl)cc2)n(-c2cc(CN)c3ccccc3c2)n1` [Example 68, 1-[1-(4-(aminomethyl)naphthalen-2-yl)-3-t-butyl-1H-pyrazol-5-yl]-3-(4-chlorophenyl)urea], for which the IC50 on KDR kinase amounted to 1400 nM; at B-Raf(V599E) kinase it was 24 nM.

For the compound `CC(C)(C)c1cc(NC(=O)Nc2cc(F)c(F)cc2F)n(-c2cccc(C(=N)N)c2)n1` [Example 214, 1-(3-t-butyl-1-(3-carbamimidoylphenyl)-1H-pyrazol-5-yl)-3-(2,4,5-trifluorophenyl)urea], the IC50 on KDR kinase turned out to be 840 nM.

Consider `CC(C)(C)c1cc(NC(=O)Nc2cccc(Cl)c2Cl)n(-c2ccc3[nH]c(=O)ccc3c2)n1` [Example 155, 1-(3-t-butyl-1-(2-oxo-1,2-dihydroquinolin-6-yl)-1H-pyrazol-5-yl)-3-(2,3-dichlorophenyl)-urea], for which the IC50 on Abl kinase was found to be 260 nM; in assay [1], 110 nM; at B-Raf(V599E) kinase, 1.4 nM.

Turning to `CC(C)(C)c1cc(NC(=O)Nc2cccc(Cl)c2Cl)n(-c2ccc3c(c2)CCN3S(=O)(=O)C(F)(F)F)n1` [Example 201, 1-(3-t-butyl-1-(1-(trifluoromethylsulfonyl)indolin-5-yl)-1H-pyrazol-5-yl)-3-(2,3-dichlorophenyl)urea], the IC50 in assay [1] amounted to 150 nM; at KDR kinase, 130 nM.

With `CC(C)(C)c1cc(NC(=O)Nc2ccc(F)c(F)c2F)n(-c2ccc3ncccc3c2)n1` [Example 285, 1-(3-t-butyl-(quinolin-6-yl)-1H-pyrazol-5-yl)-3-(2,3,4-trifluorophenyl)urea], the figures for the IC50 at KDR kinase and at B-Raf(V599E) kinase were 380 nM and 5.1 nM, respectively.

For `CC(=O)c1cc(-n2nc(C(C)(C)C)cc2NC(=O)Nc2cccc(Cl)c2Cl)cc2ccccc12` [Example 100, 1-(1-(4-acetylnaphthalen-2-yl)-3-t-butyl-1H-pyrazol-5-yl)-3-(2,3-dichlorophenyl)urea], the results for the IC50 (on Abl kinase; in assay [1]; against B-Raf(V599E) kinase) were 150 nM, 5 nM and 6.9 nM, respectively.

`CC(C(N)=O)c1ccc(-n2nc(C(C)(C)C)cc2NC(=O)Nc2cccc(Cl)c2Cl)cc1` (centres unmarked) [Example 203, 1-(1-(4-(1-amino-1-oxopropan-2-yl)phenyl)-3-t-butyl-1H-pyrazol-5-yl)-3-(2,3-dichlorophenyl)urea]: the IC50 in assay [1] worked out at 17 nM; on KDR kinase it was 160 nM.

For the compound `CC(C)(C)c1cc(NC(=O)Nc2ccccc2)n(-c2ccc3ncccc3c2)n1` [Example 282, 1-[3-t-butyl-1-(quinolin-6-yl)-1H-pyrazol-5-yl]-3-phenylurea], the IC50 stood at 2400 nM at KDR kinase and 41 nM against B-Raf(V599E) kinase.

For the compound `CC(C)(C)c1cc(NC(=O)Nc2cccc(Cl)c2Cl)n(-c2ccc3c(c2)CC(C(=O)O)NC3)n1` (centres unmarked) [Example 205], the IC50 in assay [1] amounted to 29 nM; on KDR kinase, 280 nM.

As for `CC(C)(C)c1cc(NC(=O)Nc2ccccc2)n(-c2ccc3c(c2)CCC(=O)N3)n1` [Example 319, 1-(3-t-butyl-1-(2-oxo-1,2,3,4-tetrahydro-quinolin-6-yl)-1H-pyrazol-5-yl)-3-phenylurea], the figures for the IC50 on KDR kinase and against B-Raf(V599E) kinase were 4300 nM and 32 nM, respectively.

With `CC(C)(C)c1cc(NC(=O)Nc2cccc(Cl)c2Cl)n(-c2ccc(CC(=O)N3CCS(=O)(=O)CC3)cc2)n1` [Example 495], the IC50 at KDR kinase is 1500 nM; against B-Raf(V599E) kinase, 55 nM.
